Measured values taken from patent US20190365771A1, “APILIMOD COMPOSITIONS AND METHODS FOR USING SAME IN THE TREATMENT OF ALZHEIMER'S DISEASE” (AI Therapeutics, Inc., priority 2016, published 2019).

Experiments:
[1] = tested on: Hela cells transiently transfected with APP Swedish/Indiana double mutant (APPSw-I); assay: Ab 40 ELISA of supernatants of Hela cells transfected with APPSw-I construct; type: cell-based, human; conditions: treated two days with 10000, 1000, 100, 1 nM, FIG. 1
Text: (§1) The Amyloid precursor protein (APP) can be processed by proteases, first by beta secretase (BACE1) then followed by gamma secretase to generate peptide fragments including sizes of 40 and 42 amino acids named abeta (Ab), e.g. Ab 1-40 and Ab 1-42. Several familial Alzheimer disease-related mutations and truncated mutants in the APP gene have been described in the investigation of APP processing to Ab in vitro and in vivo. […] Briefly, two constructs were used to generate Ab:(1) APP Swedish/Indiana double mutant (APPSw-I) in the 695 amino acid APP construct combines the Swedish mutant APP K670N, M671L (Mullan M et al, A pathogenic mutation for probable Alzheimer's disease in the APP gene at the N-terminus of beta-amyloid. Nat Genet., 1992 August; 1(5):345-7) and the Indiana mutation APP V717F (Suzuki N et al, An increased percentage of long amyloid beta protein secreted by familial amyloid beta protein precursor (beta APP717) mutants. Science, 1994 May 27; 264(5163): 1336-40); and (2) C99 APP truncated mutant (C99) fragment encoding the last 99-aa of APP 695, this construct mimics the BACE1 cleaved APP at the major Asp+1 site of Aβ to generate C99. […]

[2] = tested on: Hela cells transiently transfected with C99 APP truncated mutant (C99); assay: Ab 40 ELISA of supernatants of Hela cells transfected with C99 construct; type: cell-based, human; conditions: treated two days with 10000, 1000, 100, 1 nM, FIG. 2
Text: as §1

SMILES: Cc1cccc(/C=N/Nc2cc(N3CCOCC3)nc(OCCc3ccccn3)n2)c1 [apilimod]
- Ab concentration in cell culture supernatant [1]: dose dependent decrease of Ab
- Ab concentration in cell culture supernatant [2]: dose dependent decrease of Ab
